# Results from patent publication US11780845B2 (Relay Therapeutics, Inc., priority 2019, dated 2023).
# Legend:
# FGFR2 = FGFR2 (Homo sapiens (Human), UniProt P21802); test: FGFR2 Biochemical Caliper Assay
# Experimental: Compounds of the present invention were also tested in a FGFR2 Biochemical Caliper Assay. Compounds were prepared in 10 mM DMSO solution and serially diluted into 11 concentrations by 3-fold dilution. […] 5 uL of ATP solution (100 uM) was added to start the reaction and the plate was incubated for 90 minutes, then 70 uL of stopping buffer (0.5M EDTA) was added to terminate the reaction. Each well was analyzed using EZ reader.
# SNU16 cells = test: SNU16 Cancer Cell Line Proliferation Assay; type: cell-based; settings: Homo sapiens; SNU-16 cells
# In short: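 Proliferation read-out: CellTiter Glo chemiluminescence after 96 h compound exposure. Test compounds, serially diluted 3-fold over 11 points from a 10 mM DMSO stock, were added to SNU16 cells plated 24 h earlier at 37 degrees.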
# FGFR2, sequence (P21802 22-821): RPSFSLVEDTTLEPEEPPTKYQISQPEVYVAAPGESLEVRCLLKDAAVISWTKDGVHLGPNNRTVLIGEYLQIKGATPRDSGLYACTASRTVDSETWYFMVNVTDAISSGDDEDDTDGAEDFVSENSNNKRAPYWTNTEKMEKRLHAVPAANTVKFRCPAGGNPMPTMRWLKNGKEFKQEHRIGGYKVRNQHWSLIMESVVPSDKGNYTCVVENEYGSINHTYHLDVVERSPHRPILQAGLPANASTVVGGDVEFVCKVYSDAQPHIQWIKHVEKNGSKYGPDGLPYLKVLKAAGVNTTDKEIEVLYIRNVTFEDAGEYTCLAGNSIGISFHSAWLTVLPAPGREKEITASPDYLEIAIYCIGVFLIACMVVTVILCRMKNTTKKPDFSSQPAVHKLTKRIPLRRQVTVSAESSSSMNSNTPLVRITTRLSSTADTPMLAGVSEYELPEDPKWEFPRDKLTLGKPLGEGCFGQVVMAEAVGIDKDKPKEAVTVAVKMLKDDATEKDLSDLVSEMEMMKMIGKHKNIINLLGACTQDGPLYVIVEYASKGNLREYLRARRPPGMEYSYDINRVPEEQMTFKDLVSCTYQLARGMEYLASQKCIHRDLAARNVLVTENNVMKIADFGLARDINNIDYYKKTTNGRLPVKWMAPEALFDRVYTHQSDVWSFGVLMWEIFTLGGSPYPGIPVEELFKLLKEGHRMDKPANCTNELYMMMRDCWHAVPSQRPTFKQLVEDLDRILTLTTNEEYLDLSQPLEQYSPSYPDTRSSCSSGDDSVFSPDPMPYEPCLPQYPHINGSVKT
smiles,measurement,setting,value
C=CC(=O)Nc1ccc(-c2c(-c3ccc(ON4CCCC4)cc3)c3c(N)ncnc3n2C)c(C)c1 [Example 216],IC50,FGFR2,< 100 nM
same,IC50,SNU16 cells,≤ 100 nM
C=CC(=O)Nc1ccc(-c2c(-c3ccc(C(=O)N4CCCC4)cc3)c3c(N)ncnc3n2C)cc1F [Example 217],IC50,FGFR2,< 100 nM
same,IC50,SNU16 cells,≤ 100 nM
C=CC(=O)Nc1c(F)cc(-c2c(-c3ccc(C(=O)N4CCCC4)cc3)c3c(N)ncnc3n2C)cc1F [Example 219],IC50,FGFR2,< 100 nM
same,IC50,SNU16 cells,≤ 100 nM
C=CC(=O)Nc1ccc(-c2c(-c3ccc(C(=O)N4CCCC4)cc3)c3c(N)ncnc3n2C)cc1C [Example 220],IC50,FGFR2,< 100 nM
same,IC50,SNU16 cells,≤ 100 nM
C=C(C)C(=O)Nc1ccc(-c2c(-c3ccc(OC4CCCC4)cc3)c3c(N)ncnc3n2C)cc1 [Example 223],IC50,FGFR2,< 100 nM
same,IC50,SNU16 cells,≤ 100 nM
C=C(C)C(=O)Nc1ccc(-c2c(-c3ccc(NC(=O)C4CCCC4)cc3)c3c(N)ncnc3n2C)cc1 [Example 224],IC50,FGFR2,< 100 nM
same,IC50,SNU16 cells,≤ 100 nM
C=C(C)C(=O)Nc1ccc(-c2c(-c3ccc(C(=O)N(C)C4CCC4)cc3)c3c(N)ncnc3n2C)cc1 [Example 227],IC50,FGFR2,100 to 250 nM
same,IC50,SNU16 cells,100 to 250 nM
C=C(C)C(=O)Nc1ccc(-c2c(-c3ccc(C(=O)N4CCC5CC5C4)cc3)c3c(N)ncnc3n2C)cc1 (stereo not drawn) [Example 228],IC50,FGFR2,< 100 nM
same,IC50,SNU16 cells,≤ 100 nM
C=C(C)C(=O)Nc1ccc(-c2c(-c3ccc(C(=O)N4CCC5CC54)cc3)c3c(N)ncnc3n2C)cc1 (stereo not drawn) [Example 229],IC50,FGFR2,< 100 nM
same,IC50,SNU16 cells,≤ 100 nM
C=C(C)C(=O)Nc1ccc(-c2c(-c3ccc(C(=O)N4CCCCCC4)cc3)c3c(N)ncnc3n2C)cc1 [Example 230],IC50,FGFR2,< 100 nM
same,IC50,SNU16 cells,≤ 100 nM
C=C(C)C(=O)Nc1ccc(-c2c(-c3ccc(C(=O)N(C)C4CCCC4)cc3)c3c(N)ncnc3n2C)cc1 [Example 233],IC50,FGFR2,100 to 250 nM
same,IC50,SNU16 cells,100 to 250 nM
C=C(C)C(=O)Nc1ccc(-c2c(-c3ccc(C(=O)N4CCC5(CC5)C4)cc3)c3c(N)ncnc3n2C)cc1 [Example 234],IC50,FGFR2,< 100 nM
same,IC50,SNU16 cells,≤ 100 nM
C=C(C)C(=O)Nc1ccc(-c2c(-c3ccc(C(=O)N4CCCCC4=O)cc3)c3c(N)ncnc3n2C)cc1 [Example 236],IC50,FGFR2,100 to 250 nM
same,IC50,SNU16 cells,100 to 250 nM
C=C(C)C(=O)Nc1ccc(-c2c(-c3ccc(C(=O)N4CC5CC5C4)cc3)c3c(N)ncnc3n2C)cc1 (stereo not drawn) [Example 237],IC50,FGFR2,100 to 250 nM
same,IC50,SNU16 cells,100 to 250 nM
C=C(C)C(=O)Nc1ccc(-c2c(-c3ccc(C(=O)N4CC5CCC4CO5)cc3)c3c(N)ncnc3n2C)cc1 (stereo not drawn) [Example 238],IC50,FGFR2,250 to 1000 nM
same,IC50,SNU16 cells,250 to 1000 nM
C=C(C)C(=O)Nc1ccc(-c2c(-c3ccc(C(=O)N4CCCC5CC54)cc3)c3c(N)ncnc3n2C)cc1 (stereo not drawn) [Example 239],IC50,FGFR2,< 100 nM
same,IC50,SNU16 cells,≤ 100 nM
C=C(C)C(=O)Nc1ccc(-c2c(-c3ccc(C(=O)N4CC5(CCCC5)C4)cc3)c3c(N)ncnc3n2C)cc1 [Example 241],IC50,FGFR2,1000 to 100000 nM
same,IC50,SNU16 cells,250 to 1000 nM
C=C(C)C(=O)Nc1ccc(-c2c(-c3ccc(Cn4cccn4)cc3)c3c(N)ncnc3n2C)cc1 [Example 244],IC50,FGFR2,1000 to 100000 nM
same,IC50,SNU16 cells,250 to 1000 nM
C=C(C)C(=O)Nc1ccc(-c2c(-c3ccc(C(=O)N4CCC5(CCC5)C4)cc3)c3c(N)ncnc3n2C)cc1 [Example 245],IC50,FGFR2,250 to 1000 nM
same,IC50,SNU16 cells,250 to 1000 nM
C=C(C)C(=O)Nc1ccc(-c2c(-c3ccc(C(=O)N4CC5CCCCC5C4)cc3)c3c(N)ncnc3n2C)cc1 (stereo not drawn) [Example 246],IC50,FGFR2,250 to 1000 nM
same,IC50,SNU16 cells,100 to 250 nM
C=C(C)C(=O)Nc1ccc(-c2c(-c3ccc(C(=O)NCC(F)(F)F)cc3)c3c(N)ncnc3n2C)cc1 [Example 248],IC50,FGFR2,< 100 nM
same,IC50,SNU16 cells,≤ 100 nM
C=C(C)C(=O)Nc1ccc(-c2c(-c3ccc(C(=O)N4CC5COCC5C4)cc3)c3c(N)ncnc3n2C)cc1 (stereo not drawn) [Example 249],IC50,FGFR2,250 to 1000 nM
same,IC50,SNU16 cells,250 to 1000 nM
C=C(C)C(=O)Nc1ccc(-c2c(-c3ccc(C(=O)N4CCCC(C)C4)cc3)c3c(N)ncnc3n2C)cc1 (stereo not drawn) [Example 255],IC50,FGFR2,< 100 nM
same,IC50,SNU16 cells,≤ 100 nM
C=C(C)C(=O)Nc1ccc(-c2c(-c3ccc(C(=O)Nc4ncccn4)cc3)c3c(N)ncnc3n2C)cc1 [Example 257],IC50,FGFR2,250 to 1000 nM
same,IC50,SNU16 cells,250 to 1000 nM
C=C(C)C(=O)Nc1ccc(-c2c(-c3ccc(C(=O)N4CC5CCC4C5)cc3)c3c(N)ncnc3n2C)cc1 (stereo not drawn) [Example 258],IC50,FGFR2,< 100 nM
same,IC50,SNU16 cells,≤ 100 nM
C=CC(=O)Nc1ccc(-c2c(-c3ccc(Cn4nc(C)cc4C)cc3)c3c(N)ncnc3n2C)cc1 [Example 260],IC50,FGFR2,< 100 nM
same,IC50,SNU16 cells,≤ 100 nM
C=C(C)C(=O)Nc1ccc(-c2c(-c3ccc(C(=O)N4CC5CCC4CC5)cc3)c3c(N)ncnc3n2C)cc1 [Example 262],IC50,FGFR2,< 100 nM
same,IC50,SNU16 cells,≤ 100 nM
C=C(C)C(=O)Nc1ccc(-c2c(-c3ccc(Cn4cc(C)cn4)cc3)c3c(N)ncnc3n2C)cc1 [Example 263],IC50,FGFR2,1000 to 100000 nM
same,IC50,SNU16 cells,250 to 1000 nM
C=C(C)C(=O)Nc1ccc(-c2c(-c3ccc(C(=O)N4CCCC5(CC5)C4)cc3)c3c(N)ncnc3n2C)cc1 [Example 264],IC50,FGFR2,100 to 250 nM
same,IC50,SNU16 cells,≤ 100 nM
C=C(C)C(=O)Nc1ccc(-c2c(-c3ccc(C(=O)NC4CCC4)cc3)c3c(N)ncnc3n2C)cc1 [Example 265],IC50,FGFR2,< 100 nM
same,IC50,SNU16 cells,≤ 100 nM
C=C(C)C(=O)Nc1ccc(-c2c(-c3ccc(Cn4nccc4C)cc3)c3c(N)ncnc3n2C)cc1 [Example 266],IC50,FGFR2,1000 to 100000 nM
same,IC50,SNU16 cells,250 to 1000 nM
C=C(C)C(=O)Nc1ccc(-c2c(-c3ccc(Oc4ccn(C)n4)cc3)c3c(N)ncnc3n2C)cc1 [Example 267],IC50,FGFR2,< 100 nM
same,IC50,SNU16 cells,≤ 100 nM
C=C(C)C(=O)Nc1ccc(-c2c(-c3ccc(C(=O)N(C)Cc4nc(C)no4)cc3)c3c(N)ncnc3n2C)cc1 [Example 270],IC50,FGFR2,250 to 1000 nM
same,IC50,SNU16 cells,250 to 1000 nM
C=C(C)C(=O)Nc1ccc(-c2c(-c3ccc(C(=O)N4CC5CC4C5)cc3)c3c(N)ncnc3n2C)cc1 [Example 272],IC50,FGFR2,< 100 nM
same,IC50,SNU16 cells,≤ 100 nM
C=C(C)C(=O)Nc1ccc(-c2c(-c3ccc(Cn4ccc(C)n4)cc3)c3c(N)ncnc3n2C)cc1 [Example 274],IC50,FGFR2,100 to 250 nM
same,IC50,SNU16 cells,250 to 1000 nM
C=CC(=O)Nc1ccc(-c2c(-c3ccc(Oc4ccn(C)n4)cc3)c3c(N)ncnc3n2C)cc1 [Example 276],IC50,FGFR2,< 100 nM
same,IC50,SNU16 cells,≤ 100 nM
C=C(C)C(=O)Nc1ccc(-c2c(-c3ccc(C(=O)NCc4ncon4)cc3)c3c(N)ncnc3n2C)cc1 [Example 282],IC50,FGFR2,100 to 250 nM
same,IC50,SNU16 cells,250 to 1000 nM
C=C(C)C(=O)Nc1ccc(-c2c(-c3ccc(C(=O)NC4CCOC4)cc3)c3c(N)ncnc3n2C)cc1 (stereo not drawn) [Example 283],IC50,FGFR2,< 100 nM
same,IC50,SNU16 cells,≤ 100 nM
C=C(C)C(=O)Nc1ccc(-c2c(-c3ccc(C(=O)NCC(C)(C)O)cc3)c3c(N)ncnc3n2C)cc1 [Example 288],IC50,FGFR2,< 100 nM
same,IC50,SNU16 cells,250 to 1000 nM
C=C(C)C(=O)Nc1ccc(-c2c(-c3ccc(C(=O)NC4COC4)cc3)c3c(N)ncnc3n2C)cc1 [Example 289],IC50,FGFR2,250 to 1000 nM
same,IC50,SNU16 cells,250 to 1000 nM
C=C(C)C(=O)Nc1ccc(-c2c(-c3ccc(C(=O)N[C@@H](CO)C4CC4)cc3)c3c(N)ncnc3n2C)cc1 [Example 290],IC50,FGFR2,< 100 nM
same,IC50,SNU16 cells,100 to 250 nM
C=C(C)C(=O)Nc1ccc(-c2c(-c3ccc(C(=O)N4CC5CCC5C4)cc3)c3c(N)ncnc3n2C)cc1 (stereo not drawn) [Example 291],IC50,FGFR2,< 100 nM
same,IC50,SNU16 cells,≤ 100 nM
C=C(C)C(=O)Nc1ccc(-c2c(-c3ccc(C(=O)N4CCCC[C@@H]4C)cc3)c3c(N)ncnc3n2C)cc1 [Example 292],IC50,FGFR2,< 100 nM
same,IC50,SNU16 cells,≤ 100 nM
C=C(C)C(=O)Nc1ccc(-c2c(-c3ccc(C(=O)N4CCCC[C@H]4C)cc3)c3c(N)ncnc3n2C)cc1 [Example 293],IC50,FGFR2,< 100 nM
same,IC50,SNU16 cells,≤ 100 nM
C=C(C)C(=O)Nc1ccc(-c2c(-c3ccc(C(=O)N(C)Cc4cnn(C)c4)cc3)c3c(N)ncnc3n2C)cc1 [Example 294],IC50,FGFR2,1000 to 100000 nM
same,IC50,SNU16 cells,250 to 1000 nM
C=C(C)C(=O)Nc1ccc(-c2c(-c3ccc(C(=O)Nc4ncon4)cc3)c3c(N)ncnc3n2C)cc1 [Example 295],IC50,FGFR2,1000 to 100000 nM
same,IC50,SNU16 cells,250 to 1000 nM
C=CC(=O)Nc1ccc(-c2c(C3=CCC(C(=O)N(C)C)CC3)c3c(N)ncnc3n2C)cc1 (stereo not drawn) [Example 296],IC50,FGFR2,< 100 nM
same,IC50,SNU16 cells,≤ 100 nM
C=CC(=O)Nc1ccc(-c2c(C3=CCC(C(=O)N4CCCC4)CC3)c3c(N)ncnc3n2C)cc1 (stereo not drawn) [Example 297],IC50,FGFR2,< 100 nM
same,IC50,SNU16 cells,≤ 100 nM
C=CC(=O)Nc1ccc(-c2c(C3=CCC(C(=O)NC4CCCC4)CC3)c3c(N)ncnc3n2C)cc1 (stereo not drawn) [Example 298],IC50,FGFR2,< 100 nM
same,IC50,SNU16 cells,≤ 100 nM
C=C(C)C(=O)Nc1ccc(-c2c(-c3ccc(C(=O)N4CC5CCC(C5)C4)cc3)c3c(N)ncnc3n2C)cc1 [Example 299],IC50,FGFR2,< 100 nM
same,IC50,SNU16 cells,≤ 100 nM
C=C(C)C(=O)Nc1ccc(-c2c(-c3ccc(C(=O)N[C@@H]4CCOC4)cc3)c3c(N)ncnc3n2C)cc1 [Example 300],IC50,FGFR2,< 100 nM
same,IC50,SNU16 cells,≤ 100 nM
C=C(C)C(=O)Nc1ccc(-c2c(-c3ccc(S(=O)(=O)NC4COC4)cc3)c3c(N)ncnc3n2C)cc1 [Example 301],IC50,FGFR2,1000 to 100000 nM
same,IC50,SNU16 cells,250 to 1000 nM
C=CC(=O)Nc1ccc(-c2c(C3CCC(C(=O)NC)CC3)c3c(N)ncnc3n2C)cc1 (stereo not drawn) [Example 302],IC50,FGFR2,1000 to 100000 nM
same,IC50,SNU16 cells,250 to 1000 nM
C=C(C)C(=O)Nc1ccc(-c2c(-c3ccc(S(=O)(=O)NCC(C)C)cc3)c3c(N)ncnc3n2C)cc1 [Example 303],IC50,FGFR2,250 to 1000 nM
same,IC50,SNU16 cells,250 to 1000 nM
C=C(C)C(=O)Nc1ccc(-c2c(-c3ccc(C(=O)N(C)CC(F)(F)F)cc3)c3c(N)ncnc3n2C)cc1 [Example 304],IC50,FGFR2,< 100 nM
same,IC50,SNU16 cells,≤ 100 nM
C=C(C)C(=O)Nc1ccc(-c2c(-c3ccc(C(=O)NCC(F)F)cc3)c3c(N)ncnc3n2C)cc1 [Example 305],IC50,FGFR2,< 100 nM
same,IC50,SNU16 cells,≤ 100 nM
C=C(C)C(=O)Nc1ccc(-c2c(-c3ccc(C(=O)NCC(C)(C)OC)cc3)c3c(N)ncnc3n2C)cc1 [Example 306],IC50,FGFR2,< 100 nM
same,IC50,SNU16 cells,≤ 100 nM
